Laboratory results reported in the NIST ThermoML archive (doi:10.1021/je050065n).

What was measured:
[1] = Crystal
[2] = Molar enthalpy of transition or fusion; conditions: Crystal
[3] = molar heat capacity at constant pressure; conditions: 101.33 kPa

CCCCCCCCCCCCC(=O)OCC [ethyl tridecanoate]
Conditions | Molar enthalpy of transition or fusion [kJ/mol] | Triple point temperature [K]
[1] | – | 272.4
[2] | 40.7 | –

[3]
Conditions | molar heat capacity at constant pressure [J/K/mol]
203.72 K, Crystal | 303.18
204.3 K, Crystal | 304.48
206.07 K, Crystal | 306.99
209.03 K, Crystal | 310.71
211.98 K, Crystal | 314.26
214.92 K, Crystal | 318.07
217.87 K, Crystal | 321.89
220.82 K, Crystal | 325.88
226.72 K, Crystal | 334
229.65 K, Crystal | 338.41
232.57 K, Crystal | 342.7
235.47 K, Crystal | 347.41
238.34 K, Crystal | 352.35
241.19 K, Crystal | 357.3
244.03 K, Crystal | 362.39
246.84 K, Crystal | 368.11
249.63 K, Crystal | 374.08
252.4 K, Crystal | 380.86
255.15 K, Crystal | 387.34
257.88 K, Crystal | 398.08
260.57 K, Crystal | 413.23
277.28 K, Liquid | 486.51
279.73 K, Liquid | 487.34
282.18 K, Liquid | 488.17
288.64 K, Liquid | 490.72
291.29 K, Liquid | 492.03
293.93 K, Liquid | 493
296.56 K, Liquid | 494.67
299.2 K, Liquid | 496
301.82 K, Liquid | 497.42
304.44 K, Liquid | 498.94
307.06 K, Liquid | 500.72
309.67 K, Liquid | 502.48
312.27 K, Liquid | 503.98
314.87 K, Liquid | 505.99
317.47 K, Liquid | 507.58
320.06 K, Liquid | 509.22
